Source: US8097238B2, “Cell targeting conjugates” (Peter MacCallum Cancer Institute, priority 2004, dated 2012)
“And” between values parts separate entries of the source, which are not always exact repeats. Equal entries are not always repeated.

Key:
[1] = tested on: K562 cells; assay: K562 cell survival after incubation with labelled iodoHoechst 33258; assay type: cell-based, human; details: 500 nM for 1 hour at 37° C., decays accumulated at 5° C. for 24 hours
Experimental: Cells (5×10^5/ml) in RPMI-1640 medium containing 10% FBS and gentamicin were incubated with varying specific activities of ^127I/^123I-iodoHoechst 33258 (500 nM) for 1 hour at 37° C. Following incubation the cells were separated from the supernatant by 3 centrifugation (400×g for 3 minutes)-wash cycles. The cell pellets were suspended in RPMI medium and ^123I-decays were accumulated at 5° C. for 24 hours. Following accumulation of decays, the cell-pellets were isolated by centrifugation at 400×g for 3 minutes, suspended in AMEM containing 20% FBS and an appropriate cell number from each of the samples was cloned in semi-solid (0.33% (w/v)) noble agar in 6-well microtiter plates, as discussed above.

[2] = tested on: plasmid DNA; assay: Plasmid DNA breakage, ^123I/^125I double isotope method; assay type: biochemical
Source text: The experimental design exploits the plasmid DNA assay system, and agarose gel electrophoresis, as described previously to evaluate DNA breakage by the labelled minor groove binding DNA ligand, ^125I-iodoHoechst 33258 (Lobachevsky, Karagiannis and Martin 2004).
The accumulation of DNA single-stranded breaks and DNA double-stranded breaks is monitored by quantitation of the decline in the fraction of intact supercoiled plasmid (S), and the corresponding increase in the fractions of relaxed (R) and linear (L) species, with the progressive accumulation of decay events. Various assumptions enable the derivation of the relationship between the parameters S, R and L (or their normalised counterparts S′, R′ and L′), the number of decay events (n), and for example, the yield of double-stranded breaks per decay (d) of isotope in DNA-bound ligand. […] Accordingly, a double isotope strategy was developed, using a mixture of ^123I- and ^125I-iodoHoechst 33258. This approach yields a ratio d values, providing an estimate of the relative efficiency (^123I relative to ^125I) for double-strand breaks per decay, which is independent of f.
The basis of the double isotope method is apparent from the following relationship:
Where n1 is the number of ^123I decays, and n1m is the maximum (ie at time=infinity) number of ^123I decays.
A plot of the LHS term of the above equation versus n2 (the number of ^125I decay events in the incubation mixture) yields a two phase curve, the 2nd phase of which approaches a straight line (when n1=n1m). The values for the apparent breakage DNA dsb efficiency of ^123I and ^125I decays (da1 and da2, respectively) are obtained from the y intercept and from the gradient of the asymptote of the second phase of the curve, as shown in FIG. 14.
The apparent breakage efficiency is related to the actual efficiency of DNA-bound decay events, d, by the expression: da=df+δA
Where δA is the term for the “external” component of damage, arising from decay of non-DNA-bound isotope, which can be ignored because of the particular conditions of the
[formula] experiment, particularly, a low DNA concentration, A. Thus analysis of the data as exemplified in FIG. 14 provides the ratio of breakage efficiencies of ^123I versus ^125I decays.

CN1CCN(c2ccc3nc(-c4ccc5nc(-c6ccc(O)c(I)c6)[nH]c5c4)[nH]c3c2)CC1 [^123I-iodoHoechst 33258]
decays required for a lethal event [1]: about 230 ^123I-decays per cell
da1(^123I), apparent DNA dsb breakage efficiency ([2]; DMSO added to 10% (D series)): 0.158 and 0.170 and 0.159
da1(^123I)/da2(^125I) ([2]; DMSO added to 10% (D series)): 0.63 and 0.69 and 0.62
Average da1(^123I)/da2(^125I) ([2]; DMSO added to 10% (D series), samples D1.2-D3.2): 0.65 ± 0.03
da1(^123I), apparent DNA dsb breakage efficiency ([2]; aqueous buffer (N series)): 0.244 and 0.253 and 0.314
da1(^123I)/da2(^125I) ([2]; aqueous buffer (N series)): 0.59 and 0.64 and 0.66
Average da1(^123I)/da2(^125I) ([2]; aqueous buffer (N series), samples N1.2-N3.2): 0.63 ± 0.03
